Molecules are shown by their SMILES. “Also recorded” adds a separate entry of the source. A value given as a limit tells only on which side of the number the result lay.

The first experiment has as its system HCV2aChLuc virus. The experiment can be described thus: In vitro HCVcc entry assay: HCV2aChLuc virus infection of Huh7 cells, Renilla luciferase read-out. Type of experiment: cell-based, HCV genotype 2a. The settings on record: Hepatitis C virus, Huh-7, read-out: Activity class (IC50), tested according to the method of Example 3.
What is called IC50 is the concentration that inhibits the measured activity by half. Take `CC(C)(C)c1cc(NC(=O)C(=O)c2ccc(OCCN3CCOCC3)c3ccccc23)n(C(C)(C)C)n1` [Compound 59]: the IC50 is over 500 nM.
For `O=C(Nc1cnc2ccccc2c1)C(=O)c1ccc(OCCN2CCOCC2)c2ccccc12` [Compound 81], the IC50 is over 500 nM.
For `COc1c(NC(=O)C(=O)c2ccc(Br)c3ccccc23)cc(C(C)(C)C)cc1C(=O)NC1CC1` [Compound 135], the IC50 was under 5 nM.
Same read-out and setting: the result for `COc1c(C#N)cc(C(C)(C)C)cc1NC(=O)C(=O)c1ccc(Nc2ccnc(N3CCCC3)n2)c2ccccc12` [Compound 95] reads over 500 nM; that for `CC(C)(C)c1cc(C(F)(F)F)nc(NC(=O)C(=O)c2ccc(OCCN3CCOCC3)c3ccccc23)n1` [Compound 47], over 500 nM; that for `O=C(NC1CCc2ccccc21)C(=O)c1ccc(OCCN2CCOCC2)c2ccccc12` (centres unmarked) [Compound 115], over 500 nM.
For `CC(C)(C)c1cc(NC(=O)C(=O)c2ccc(OCCN3CCOCC3)c3ccccc23)no1` [Compound 60], the IC50 is over 500 nM.
Consider `COc1c(NC(=O)C(=O)c2ccc(OCCN3CCOCC3)c3ccccc23)cc(C(C)(C)C)cc1N(CCN1CCOCC1)S(C)(=O)=O` [Compound 117], for which the IC50 is over 500 nM.
On to `COc1c(NC(=O)C(=O)c2ccc(OCCN3CCOCC3)c3ccccc23)cc(C(C)(C)C)cc1C(=O)N1CCCCC1CN(C)C` (centres unmarked) [Compound 106], for which the IC50 is over 500 nM.
On to `CC1(C)[C@@H]2CC[C@@]1(C)[C@@H](NC(=O)C(=O)c1ccc(OCCN3CCOCC3)c3ccccc13)C2` [Compound 69], for which the IC50 was over 500 nM.
As to `CC(C)(C)c1ccccc1NC(=O)C(=O)c1ccc(OCCN2CCOCC2)c2ccccc12` [Compound 43], the IC50 was over 500 nM.
Turning to `COc1ccc(I)cc1NC(=O)C(=O)c1ccc(OCCN2CCOCC2)c2ccccc12` [Compound 121], the IC50 is 5 to 500 nM.
Turning to `COc1c(NC(=O)C(=O)c2ccc(OC)c3ccccc23)cc(C(C)(C)C)cc1NS(C)(=O)=O` [Compound 75], the IC50 fell in the range of 5 to 500 nM.
On the same count and under the same terms, the result for `COc1c(NC(=O)C(=O)c2ccc(OCCN3CCCCC3)c3ccccc23)cc(C(C)(C)C)cc1NS(C)(=O)=O` [Compound 111] reads 5 to 500 nM; that for `O=C(Nc1cc(C(F)(F)F)ccc1Cl)C(=O)c1ccc(OCCN2CCOCC2)c2ccccc12` [Compound 82], over 500 nM; that for `CC(C)(C)c1cc(NC(=O)C(=O)c2ccc(OCCN3CCOCC3)c3ccccc23)n(-c2ccccc2)n1` [Compound 34], over 500 nM.
The same measure, in the same setting: next, `COc1c(NC(=O)C(=O)c2ccc(OCCN3CCOCC3)c3ccccc23)cc(C(C)(C)C)cc1-n1ccnc1` [Compound 107]: 5 to 500 nM; `COc1c(NC(=O)C(=O)c2ccc(OC)c3ccccc23)cc(C(C)(C)C)cc1C(=O)NCC1CC1` [Compound 17, 5-tert-butyl-N-(cyclopropylmethyl)-2-methoxy-3-(2-(4-methoxynaphthalen-1-yl)-2-oxoacetamido)benzamide]: under 5 nM; `COc1c(NC(=O)C(=O)c2ccc(Br)c3ccccc23)cc(C(C)(C)C)cc1NS(C)(=O)=O` [Compound 128]: over 500 nM.
As for `CCCNC(=O)c1cc(C(C)(C)C)cc(NC(=O)C(=O)c2ccc(OCCN3CCOCC3)c3ccccc23)c1OC` [Compound 18, 5-tert-butyl-2-methoxy-3-(2-(4-(2-morpholinoethoxy)naphthalen-1-yl)-2-oxoacetamido)-N-propylbenzamide], the IC50 is under 5 nM.
On to `COc1c(NC(=O)C(=O)c2ccc(OCCN3CCOCC3)c3ccccc23)cc(C(C)(C)C)cc1C(=O)N1CCCCC1` [Compound 25], for which the IC50 lay within 5 to 500 nM.
With `CC(C)(C)c1cc(CN2CCOCC2)c(O)c(NC(=O)C(=O)c2ccc(OCCN3CCOCC3)c3ccccc23)c1` [Compound 29], the IC50 is over 500 nM.
Still for that read-out and setting: next, `O=C(Nc1ccc2c(c1)CCC2)C(=O)c1ccc(OCCN2CCOCC2)c2ccccc12` [Compound 64]: over 500 nM; `Cc1ccc(C(C)C)cc1NC(=O)C(=O)c1ccc(OCCN2CCOCC2)c2ccccc12` [Compound 62]: 5 to 500 nM; `CNc1ccc(-c2ccc(C(=O)C(=O)Nc3cc(C(C)(C)C)ccc3OC)c3ccccc23)cn1` [Compound 136]: under 5 nM.
Consider `Cc1ccc(-n2nc(C(C)(C)C)cc2NC(=O)C(=O)c2ccc(OCCN3CC[S+]([O-])CC3)c3ccccc23)cc1` [Compound 37], for which the IC50 is over 500 nM.
For `COc1c(NC(=O)C(=O)c2ccc(Nc3ccnc(N4CCOCC4)n3)c3ccccc23)cc(C(C)(C)C)cc1C(N)=O` [Compound 124], the IC50 is over 500 nM.
`CCOC(=O)N1CCN(CCOc2ccc(C(=O)C(=O)Nc3cc(C(C)(C)C)cc(NS(C)(=O)=O)c3OC)c3ccccc23)CC1` [Compound 52]: the half-inhibitory concentration (IC50) is 5 to 500 nM.
Take `O=C(Nc1n[nH]c2ccccc12)C(=O)c1ccc(OCCN2CCOCC2)c2ccccc12` [Compound 113]: the IC50 was over 500 nM.
Still for that read-out and setting: the result for `COc1c(NC(=O)C(=O)c2ccc(OCCN3CCOCC3)c3ccccc23)cc(C(C)(C)C)cc1C(=O)NC1CCNCC1` [Compound 105] reads over 500 nM; that for `COc1c(NC(=O)C(=O)c2ccc(OCCN3CCNC(=O)C3)c3ccccc23)cc(C(C)(C)C)cc1NS(C)(=O)=O` [Compound 53], over 500 nM.
For `COc1c(NC(=O)C(=O)c2ccc(OCCN3CCOCC3)c3ccccc23)cc(C(F)(F)F)cc1NS(C)(=O)=O` [Compound 116], the IC50 is over 500 nM.
`COc1c(NC(=O)C(=O)c2ccc(OCCN3CCOCC3)c3cccc(Cl)c23)cc(C(C)(C)C)cc1NS(C)(=O)=O` [Compound 76]: the IC50 was over 500 nM.
With `COc1ccc(C(C)(C)C)cc1NC(=O)C(=O)c1ccc(Nc2ccnc(N3CCOCC3)n2)c2ccccc12` [Compound 73], the concentration for half-maximal inhibition (IC50) is over 500 nM.
Take `CNC(=O)c1cc(C(C)(C)C)cc(NC(=O)C(=O)c2ccc(OCCN3CCOCC3)c3ccccc23)c1OC` [Compound 6, 5-tert-butyl-2-methoxy-N-methyl-3-(2-(4-(2-morpholinoethoxy)naphthalen-1-yl)-2-oxoacetamido)benzamide]: the IC50 is under 5 nM.
On the same count and under the same terms, next, `Cc1ccc(-n2nc(C(C)(C)C)cc2NC(=O)C(=O)c2ccc(CCN3CCNCC3)c3ccccc23)cc1` [Compound 39]: over 500 nM.

The same experiment, now with this note: ribavirin alone, 15 μM.
`NC(=O)c1ncn([C@@H]2O[C@H](CO)[C@@H](O)[C@H]2O)n1` [ribavirin, reference compound]: the “inhibitory effect on infectivity of 2a chimeric virus” value was “did not have significant inhibitory effect”.

The subject of the next experiment is HCV1a/2a chimeric virus. The experiment can be described thus: HCV entry assay with HCV1a/2a chimeric virus. The format is cell-based, HCV genotype 1a. The settings on record: ribavirin alone, 15 μM. The source says: Since HCV genotype 1 is the most prevalent genotype among the variants of HCV, we constructed an HCV1a/2a chimeric infectious clone with two cell-culture adaptive mutations introduced. Sequences for the structural proteins (including C, E1, and E2), p7, and NS2 were derived from HCV genotype 1a H77 strain. The rest of nonstructural proteins (NS3 to NS5B) and 3′ NTR were derived from HCV genotype 2a JFH strain. 5′NTR was originated from HCV2aJ6 (FIG. 7). […] Therefore, both HCV1a/2aCh virus and HCV1a/2aChLuc virus with Y361H and Q1251L mutations were successively produced in Huh7 cells and used for HCV entry assay.
Consider `NC(=O)c1ncn([C@@H]2O[C@H](CO)[C@@H](O)[C@H]2O)n1` [ribavirin, reference compound], for which the “inhibitory effect on infectivity of HCV1a chimeric virus” value is “did not have significant inhibitory effect”.

A further experiment concerns HCV2aChLuc (NS3:A156S). Kind of experiment: Infectivity of protease mutant virus versus wild type in the presence of compounds. The format is cell-based, HCV genotype 2a. The settings on record: HCV2aChLuc (NS3:A156S) vs wild type HCV2aChLuc. The source says: Therefore, we introduced A156S mutation in the backbone of HCV2aChLuc genome and investigated the infectivity of the mutant virus in the presence of compounds.
`CCC[C@H](NC(=O)[C@@H]1[C@H]2CCC[C@H]2CN1C(=O)[C@@H](NC(=O)[C@@H](NC(=O)c1cnccn1)C1CCCCC1)C(C)(C)C)C(=O)C(=O)NC1CC1` [VX-950, reference compound]: the “resistance of NS3:A156S mutant virus versus wild type (inhibition of infectivity)” value is recorded as “high level resistance; also recorded: resistant”.

The experiment is the same for the next values; noted with them: HCV2aChLuc (NS3:A156S) vs wild type HCV2aChLuc; listed as VX950.
Consider `CCC[C@H](NC(=O)[C@@H]1[C@H]2CCC[C@H]2CN1C(=O)[C@@H](NC(=O)[C@@H](NC(=O)c1cnccn1)C1CCCCC1)C(C)(C)C)C(=O)C(=O)NC1CC1` [VX-950, reference compound], for which the “resistance of NS3:A156S mutant virus versus wild type (inhibition of infectivity)” value is on record as “highly resistant”.

For the next experiment, the system named is HCV2a/2aChRluc virus. Kind of experiment: Compound 5 with ribavirin or VX950 in the HCV2a/2aChRluc system. Type of experiment: cell-based, HCV genotype 2a. The settings on record: ribavirin alone, 15 μM. The protocol:
100 μl of serially diluted compound solutions (100, 30, 10, 3, 1, 0.3, and 0.1 nM) was inoculated onto Huh-7 cells in a 96-well plate. Subsequently, 100 ul (TCID50, ˜0.6) of HCV2a/2aChRluc virus was added onto the cells. After co-incubation for 72 hrs, Renilla luciferase expression was determined (Renilla Luciferase Assay, Promega) and reported as relative light units (RLU).
Data analysis. Determinations of compound interactions were quantified based on the median-effect principle described by Chou and Talalay. Chou T., Talalay P., Adv. Enzyme. Regul., 1984, 22:27-55. Combination indices (CIs) were determined using Calcusyn (Biosoft) for each experiment at the EC50, EC75, and EC90 levels. Five replicates per condition were evaluated. A CI<0.9 was considered synergistic, a CI≧0.9 and ≦[…] was considered additive, and a CI>1.1 was deemed antagonistic.
Regarding `NC(=O)c1ncn([C@@H]2O[C@H](CO)[C@@H](O)[C@H]2O)n1` [ribavirin, reference compound], the “inhibitory effect on the infectivity of 2a chimeric virus” value was “did not have significant inhibitory effect”.

(Values after patent publication US20110117055A1, “Methods of Treating Hepatitis C Virus with Oxoacetamide Compounds” (priority 2009, published 2011).)
